Results taken from PMC4917279 (Journal of Medicinal Chemistry, 2016).

How the values were obtained:
Experiment in all cases: KINOMEscan
Assay type in all cases: binding
Conditions in all cases: read-out: %Ctrl @ 1000 nM
CAMK1G = biological target: T1, CAMK1G (Homo sapiens, UniProt Q96NX5)
T1 construct: purchased DiscoveRx KINOMEscan

ANKK1 = biological target: T2, ANKK1 (Homo sapiens, UniProt Q8NFD2)
T2 construct: purchased DiscoveRx KINOMEscan

NEK6 = biological target: T3, NEK6 (Homo sapiens, UniProt Q9HC98)
T3 construct: purchased DiscoveRx KINOMEscan

p38-beta = biological target: T4, p38-beta (Homo sapiens, UniProt Q15759)
T4 construct: purchased DiscoveRx KINOMEscan

ACVRL1 = biological target: T5, ACVRL1 (Homo sapiens, UniProt P37023)
T5 construct: purchased DiscoveRx KINOMEscan

PFTK1 = biological target: T6, PFTK1 (Homo sapiens, UniProt O94921)
T6 construct: purchased DiscoveRx KINOMEscan

GSK3A = biological target: T7, GSK3A (Homo sapiens, UniProt P49840)
T7 construct: purchased DiscoveRx KINOMEscan

[1] = biological target: T8, JAK2(JH1domain-catalytic) (Homo sapiens, UniProt O60674)
T8 construct: JAK2(JH1domain-catalytic); purchased DiscoveRx KINOMEscan

CDC2L1 = biological target: T9, CDC2L1 (Homo sapiens, UniProt P21127)
T9 construct: purchased DiscoveRx KINOMEscan

MRCKA = biological target: T10, MRCKA (Homo sapiens, UniProt Q5VT25)
T10 construct: purchased DiscoveRx KINOMEscan

RET(V804L) = biological target: T11, RET(V804L) (Homo sapiens, UniProt P07949, V804L)
T11 construct: purchased DiscoveRx KINOMEscan

ACVR1 = biological target: T12, ACVR1 (Homo sapiens, UniProt Q04771)
T12 construct: purchased DiscoveRx

PLK1 = biological target: T13, PLK1 (Homo sapiens, UniProt P53350)
T13 construct: purchased DiscoveRx KINOMEscan

MAP4K3 = biological target: T14, MAP4K3 (Homo sapiens, UniProt Q8IVH8)
T14 construct: purchased DiscoveRx KINOMEscan

SRC = biological target: T15, SRC (Homo sapiens, UniProt P12931)
T15 construct: purchased DiscoveRx KINOMEscan

PIK3CA(H1047Y) = biological target: T16, PIK3CA(H1047Y) (Homo sapiens, UniProt P42336, H1047Y)
T16 construct: purchased DiscoveRx KINOMEscan

CAMK4 = biological target: T17, CAMK4 (Homo sapiens, UniProt Q16566)
T17 construct: purchased DiscoveRx KINOMEscan

EPHA8 = biological target: T18, EPHA8 (Homo sapiens, UniProt P29322)
T18 construct: purchased DiscoveRx KINOMEscan

MAPKAPK5 = biological target: T19, MAPKAPK5 (Homo sapiens, UniProt Q8IW41)
T19 construct: purchased DiscoveRx KINOMEscan

BUB1 = biological target: T20, BUB1 (Homo sapiens, UniProt O43683)
T20 construct: purchased DiscoveRx KINOMEscan

[2] = biological target: T21, ABL1(F317L)-nonphosphorylated (Homo sapiens, UniProt P00519, F317L)
T21 construct: purchased DiscoveRx (KINOMEscan service)

LATS1 = biological target: T22, LATS1 (Homo sapiens, UniProt O95835)
T22 construct: purchased DiscoveRx KINOMEscan

PIM3 = biological target: T23, PIM3 (Homo sapiens, UniProt Q86V86)
T23 construct: purchased DiscoveRx KINOMEscan

HUNK = biological target: T24, HUNK (Homo sapiens, UniProt P57058)
T24 construct: purchased DiscoveRx KINOMEscan

GRK1 = biological target: T25, GRK1 (Homo sapiens, UniProt Q15835)
T25 construct: purchased DiscoveRx KINOMEscan

TESK1 = biological target: T26, TESK1 (Homo sapiens, UniProt Q15569)
T26 construct: purchased DiscoveRx KINOMEscan

CDKL3 = biological target: T27, CDKL3 (Homo sapiens, UniProt Q8IVW4)
T27 construct: purchased DiscoveRx KINOMEscan

AKT2 = biological target: T28, AKT2 (Homo sapiens, UniProt P31751)
T28 construct: purchased DiscoveRx KINOMEscan

ROS1 = biological target: T29, ROS1 (Homo sapiens, UniProt P08922)
T29 construct: purchased DiscoveRx KINOMEscan

TAK1 = biological target: T30, TAK1 (Homo sapiens, UniProt O43318)
T30 construct: purchased DiscoveRx KINOMEscan

SRPK2 = biological target: T31, SRPK2 (Homo sapiens, UniProt P78362)
T31 construct: purchased DiscoveRx KINOMEscan

BMPR1A = biological target: T32, BMPR1A (Homo sapiens, UniProt P36894)
T32 construct: purchased DiscoveRx KINOMEscan

MYO3A = biological target: T33, MYO3A (Homo sapiens, UniProt Q8NEV4)
T33 construct: purchased DiscoveRx KINOMEscan

ADCK4 = biological target: T34, ADCK4 (Homo sapiens, UniProt Q96D53)
T34 construct: purchased DiscoveRx KINOMEscan

HCK = biological target: T35, HCK (Homo sapiens, UniProt P08631)
T35 construct: purchased DiscoveRx KINOMEscan

BRSK2 = biological target: T36, BRSK2 (Homo sapiens, UniProt Q8IWQ3)
T36 construct: purchased DiscoveRx KINOMEscan

CDK4-cyclinD1 = biological target: T37, CDK4-cyclinD1 (Homo sapiens, UniProt P11802)
T37 construct: purchased DiscoveRx KINOMEscan

LOK = biological target: T38, LOK (Homo sapiens, UniProt O94804)
T38 construct: purchased DiscoveRx KINOMEscan

STK36 = biological target: T39, STK36 (Homo sapiens, UniProt Q9NRP7)
T39 construct: purchased DiscoveRx KINOMEscan

S6K1 = biological target: T40, S6K1 (Homo sapiens, UniProt P23443)
T40 construct: purchased DiscoveRx KINOMEscan

CSF1R-autoinhibited = biological target: T41, CSF1R-autoinhibited (Homo sapiens, UniProt P07333)
T41 construct: purchased DiscoveRx KINOMEscan

RIOK2 = biological target: T42, RIOK2 (Homo sapiens, UniProt Q9BVS4)
T42 construct: purchased DiscoveRx KINOMEscan

PRKCI = biological target: T43, PRKCI (Homo sapiens, UniProt P41743)
T43 construct: purchased DiscoveRx KINOMEscan

CDK11 = biological target: T44, CDK11 (Homo sapiens, UniProt Q9BWU1)
T44 construct: purchased DiscoveRx KINOMEscan

T27 sequence (Q8IVW4 whole entry): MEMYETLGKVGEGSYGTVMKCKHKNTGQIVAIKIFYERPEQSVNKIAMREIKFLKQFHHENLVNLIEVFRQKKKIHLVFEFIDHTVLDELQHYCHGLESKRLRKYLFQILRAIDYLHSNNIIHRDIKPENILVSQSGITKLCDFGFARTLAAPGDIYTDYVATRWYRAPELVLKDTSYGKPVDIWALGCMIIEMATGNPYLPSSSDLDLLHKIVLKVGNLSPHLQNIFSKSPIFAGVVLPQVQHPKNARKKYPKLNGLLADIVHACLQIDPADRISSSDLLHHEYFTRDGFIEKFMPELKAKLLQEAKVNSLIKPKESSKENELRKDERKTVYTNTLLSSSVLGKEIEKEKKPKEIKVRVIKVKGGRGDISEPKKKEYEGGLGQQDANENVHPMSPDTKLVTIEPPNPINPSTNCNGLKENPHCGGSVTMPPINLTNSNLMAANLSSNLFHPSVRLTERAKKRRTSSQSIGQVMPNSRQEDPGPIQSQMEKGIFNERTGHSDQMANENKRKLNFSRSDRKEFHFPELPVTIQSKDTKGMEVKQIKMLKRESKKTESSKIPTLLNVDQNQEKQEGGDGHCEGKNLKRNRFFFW
T28 sequence (P31751 whole entry): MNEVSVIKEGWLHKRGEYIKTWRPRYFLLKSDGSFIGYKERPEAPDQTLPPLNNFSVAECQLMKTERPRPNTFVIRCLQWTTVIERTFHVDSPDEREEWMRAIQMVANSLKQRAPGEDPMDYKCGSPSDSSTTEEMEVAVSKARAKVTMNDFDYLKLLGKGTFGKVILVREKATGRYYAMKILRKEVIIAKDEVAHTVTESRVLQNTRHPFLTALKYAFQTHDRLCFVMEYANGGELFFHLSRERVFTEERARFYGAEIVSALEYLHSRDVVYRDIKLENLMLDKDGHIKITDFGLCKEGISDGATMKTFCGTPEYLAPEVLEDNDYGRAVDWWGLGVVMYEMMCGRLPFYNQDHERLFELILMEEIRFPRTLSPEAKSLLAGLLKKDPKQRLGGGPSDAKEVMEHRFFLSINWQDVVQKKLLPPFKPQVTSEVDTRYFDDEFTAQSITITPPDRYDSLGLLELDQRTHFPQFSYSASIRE
T30 sequence (O43318 whole entry): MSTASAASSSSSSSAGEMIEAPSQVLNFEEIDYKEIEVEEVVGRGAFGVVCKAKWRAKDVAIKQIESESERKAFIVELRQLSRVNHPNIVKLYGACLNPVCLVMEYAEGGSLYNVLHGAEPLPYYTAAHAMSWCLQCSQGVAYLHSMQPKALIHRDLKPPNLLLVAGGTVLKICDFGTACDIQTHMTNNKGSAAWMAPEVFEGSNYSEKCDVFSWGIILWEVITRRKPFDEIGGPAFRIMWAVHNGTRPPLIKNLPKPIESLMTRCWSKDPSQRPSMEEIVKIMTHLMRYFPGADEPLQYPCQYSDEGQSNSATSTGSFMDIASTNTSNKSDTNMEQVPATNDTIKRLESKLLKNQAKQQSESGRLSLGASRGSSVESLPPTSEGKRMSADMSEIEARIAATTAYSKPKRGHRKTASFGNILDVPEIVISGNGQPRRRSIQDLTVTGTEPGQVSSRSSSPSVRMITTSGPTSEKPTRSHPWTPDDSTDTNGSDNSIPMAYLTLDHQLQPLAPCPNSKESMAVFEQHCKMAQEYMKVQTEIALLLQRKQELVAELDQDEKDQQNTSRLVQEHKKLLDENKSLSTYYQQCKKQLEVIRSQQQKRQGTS
T18 sequence (P29322 28-1005): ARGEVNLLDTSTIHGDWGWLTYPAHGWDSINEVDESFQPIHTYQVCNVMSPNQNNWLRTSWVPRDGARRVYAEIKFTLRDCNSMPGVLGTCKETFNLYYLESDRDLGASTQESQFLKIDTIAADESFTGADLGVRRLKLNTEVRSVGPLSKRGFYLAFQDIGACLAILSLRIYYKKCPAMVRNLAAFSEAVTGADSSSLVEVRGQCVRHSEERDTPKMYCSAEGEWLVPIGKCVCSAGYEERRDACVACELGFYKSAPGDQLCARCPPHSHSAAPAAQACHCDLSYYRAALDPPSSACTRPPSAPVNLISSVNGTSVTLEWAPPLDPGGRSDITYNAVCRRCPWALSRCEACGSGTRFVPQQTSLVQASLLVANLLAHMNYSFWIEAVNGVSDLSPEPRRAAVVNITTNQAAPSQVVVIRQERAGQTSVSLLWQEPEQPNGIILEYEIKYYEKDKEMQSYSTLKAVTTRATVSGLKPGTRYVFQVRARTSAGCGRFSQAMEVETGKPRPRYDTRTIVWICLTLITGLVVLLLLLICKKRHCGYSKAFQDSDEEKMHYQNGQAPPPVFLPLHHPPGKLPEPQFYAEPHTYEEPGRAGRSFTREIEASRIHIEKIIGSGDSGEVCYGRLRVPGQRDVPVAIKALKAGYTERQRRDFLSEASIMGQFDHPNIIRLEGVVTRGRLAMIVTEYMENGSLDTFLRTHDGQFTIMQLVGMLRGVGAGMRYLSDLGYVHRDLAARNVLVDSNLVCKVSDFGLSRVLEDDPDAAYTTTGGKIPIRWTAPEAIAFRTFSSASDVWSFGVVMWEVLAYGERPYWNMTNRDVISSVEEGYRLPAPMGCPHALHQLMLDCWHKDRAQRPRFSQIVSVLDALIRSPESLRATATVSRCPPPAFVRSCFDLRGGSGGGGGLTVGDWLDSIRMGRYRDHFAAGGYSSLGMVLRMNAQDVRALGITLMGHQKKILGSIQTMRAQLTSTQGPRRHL
T12 sequence (Q04771 21-509): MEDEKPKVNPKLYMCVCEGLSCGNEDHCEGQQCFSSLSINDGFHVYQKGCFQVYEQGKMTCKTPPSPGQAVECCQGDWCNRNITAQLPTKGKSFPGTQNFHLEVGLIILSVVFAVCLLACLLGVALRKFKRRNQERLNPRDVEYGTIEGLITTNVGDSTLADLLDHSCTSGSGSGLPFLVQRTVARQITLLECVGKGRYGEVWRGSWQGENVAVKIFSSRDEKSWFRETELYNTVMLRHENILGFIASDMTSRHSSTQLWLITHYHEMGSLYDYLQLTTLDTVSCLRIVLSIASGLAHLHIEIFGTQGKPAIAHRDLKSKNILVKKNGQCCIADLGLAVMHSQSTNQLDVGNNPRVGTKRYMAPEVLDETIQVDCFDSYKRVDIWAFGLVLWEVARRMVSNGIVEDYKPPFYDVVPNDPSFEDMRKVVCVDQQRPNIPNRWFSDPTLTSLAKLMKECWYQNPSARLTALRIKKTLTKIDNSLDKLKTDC
T24 sequence (P57058 whole entry): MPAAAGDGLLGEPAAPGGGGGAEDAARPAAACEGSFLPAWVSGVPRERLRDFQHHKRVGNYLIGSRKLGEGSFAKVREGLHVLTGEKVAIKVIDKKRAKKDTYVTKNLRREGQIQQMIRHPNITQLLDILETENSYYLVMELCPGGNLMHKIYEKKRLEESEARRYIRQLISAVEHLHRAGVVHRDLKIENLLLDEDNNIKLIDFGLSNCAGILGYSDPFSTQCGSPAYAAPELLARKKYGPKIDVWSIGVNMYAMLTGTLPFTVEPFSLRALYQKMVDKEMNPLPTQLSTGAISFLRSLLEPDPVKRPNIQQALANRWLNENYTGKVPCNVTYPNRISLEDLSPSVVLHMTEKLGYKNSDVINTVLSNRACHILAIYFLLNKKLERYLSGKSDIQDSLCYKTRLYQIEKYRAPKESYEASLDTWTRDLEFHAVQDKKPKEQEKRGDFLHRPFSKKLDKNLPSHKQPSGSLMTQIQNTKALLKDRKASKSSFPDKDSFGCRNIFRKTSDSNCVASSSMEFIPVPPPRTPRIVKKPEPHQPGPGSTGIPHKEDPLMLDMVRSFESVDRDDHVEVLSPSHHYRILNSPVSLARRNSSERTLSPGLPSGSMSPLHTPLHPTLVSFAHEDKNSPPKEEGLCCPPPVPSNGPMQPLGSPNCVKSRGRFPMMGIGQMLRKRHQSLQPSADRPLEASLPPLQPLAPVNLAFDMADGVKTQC
T2 sequence (Q8NFD2 whole entry): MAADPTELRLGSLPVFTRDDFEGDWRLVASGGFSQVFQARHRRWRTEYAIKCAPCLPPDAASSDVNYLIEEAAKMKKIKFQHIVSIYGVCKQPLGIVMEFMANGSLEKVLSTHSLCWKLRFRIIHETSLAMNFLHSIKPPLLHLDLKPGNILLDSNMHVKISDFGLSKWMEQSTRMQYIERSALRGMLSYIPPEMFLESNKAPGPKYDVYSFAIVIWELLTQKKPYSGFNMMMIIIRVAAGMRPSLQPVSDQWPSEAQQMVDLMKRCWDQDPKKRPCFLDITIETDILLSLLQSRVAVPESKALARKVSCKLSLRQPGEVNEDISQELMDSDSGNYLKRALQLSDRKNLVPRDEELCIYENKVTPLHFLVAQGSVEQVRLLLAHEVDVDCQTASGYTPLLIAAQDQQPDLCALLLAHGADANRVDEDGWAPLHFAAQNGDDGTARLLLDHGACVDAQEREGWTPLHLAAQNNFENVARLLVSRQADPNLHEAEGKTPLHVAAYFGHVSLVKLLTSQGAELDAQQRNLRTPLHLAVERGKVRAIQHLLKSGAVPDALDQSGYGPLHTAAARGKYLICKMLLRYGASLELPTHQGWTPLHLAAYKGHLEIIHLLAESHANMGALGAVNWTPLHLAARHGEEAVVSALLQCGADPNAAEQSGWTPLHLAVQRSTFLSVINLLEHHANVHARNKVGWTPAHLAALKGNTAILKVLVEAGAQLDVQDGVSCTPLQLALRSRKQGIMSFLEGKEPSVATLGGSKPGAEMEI
T3 sequence (Q9HC98 whole entry): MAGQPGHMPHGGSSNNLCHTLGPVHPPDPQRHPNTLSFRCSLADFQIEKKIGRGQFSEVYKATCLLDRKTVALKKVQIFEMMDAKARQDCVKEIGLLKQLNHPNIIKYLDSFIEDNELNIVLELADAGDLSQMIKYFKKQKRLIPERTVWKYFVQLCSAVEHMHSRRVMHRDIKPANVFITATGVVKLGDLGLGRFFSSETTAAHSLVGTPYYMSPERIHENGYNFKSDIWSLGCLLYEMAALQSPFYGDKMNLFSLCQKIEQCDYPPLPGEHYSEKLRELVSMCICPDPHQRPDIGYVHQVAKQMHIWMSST

## CCN(C(=O)CO)[C@H]1CN(/C(=N\C#N)Nc2cccc(OC(F)F)c2)N=C1c1ccc(Cl)c(Cl)c1 [(S)-4]
CAMK1G
  remaining binding at 1 µM: 98%
ANKK1
  remaining binding at 1 µM: 92%
NEK6
  remaining binding at 1 µM: 91%
p38-beta
  remaining binding at 1 µM: 100%
ACVRL1
  remaining binding at 1 µM: 74%
PFTK1
  remaining binding at 1 µM: 84%
GSK3A
  remaining binding at 1 µM: 88%
[1]
  remaining binding at 1 µM: 100%
CDC2L1
  remaining binding at 1 µM: 97%
MRCKA
  remaining binding at 1 µM: 93%
RET(V804L)
  remaining binding at 1 µM: 84%
ACVR1
  remaining binding at 1 µM: 96%
PLK1
  remaining binding at 1 µM: 100%
MAP4K3
  remaining binding at 1 µM: 90%
SRC
  remaining binding at 1 µM: 79%
PIK3CA(H1047Y)
  remaining binding at 1 µM: 92%
CAMK4
  remaining binding at 1 µM: 82%
EPHA8
  remaining binding at 1 µM: 94%
MAPKAPK5
  remaining binding at 1 µM: 100%
BUB1
  remaining binding at 1 µM: 100%
[2]
  remaining binding at 1 µM: 100%
LATS1
  remaining binding at 1 µM: 90%
PIM3
  remaining binding at 1 µM: 88%
HUNK
  remaining binding at 1 µM: 94%
GRK1
  remaining binding at 1 µM: 93%
TESK1
  remaining binding at 1 µM: 94%
CDKL3
  remaining binding at 1 µM: 96%
AKT2
  remaining binding at 1 µM: 100%
ROS1
  remaining binding at 1 µM: 68%
TAK1
  remaining binding at 1 µM: 100%
SRPK2
  remaining binding at 1 µM: 95%
BMPR1A
  remaining binding at 1 µM: 100%
MYO3A
  remaining binding at 1 µM: 100%
ADCK4
  remaining binding at 1 µM: 81%
HCK
  remaining binding at 1 µM: 68%
BRSK2
  remaining binding at 1 µM: 74%
CDK4-cyclinD1
  remaining binding at 1 µM: 93%
LOK
  remaining binding at 1 µM: 69%
STK36
  remaining binding at 1 µM: 81%
S6K1
  remaining binding at 1 µM: 87%
CSF1R-autoinhibited
  remaining binding at 1 µM: 47%
RIOK2
  remaining binding at 1 µM: 100%
PRKCI
  remaining binding at 1 µM: 63%
CDK11
  remaining binding at 1 µM: 85%
